{"source": "paper PMC3733081", "about": "(Journal of chemical information and modeling, 2013)", "key": {"n-hexadecane/water": {"experiment": "n-hexadecane/water", "conditions": "for P (n-hexadecane/water partition coefficient): shake-flask, P=l1/l2, ± error"}, "[1]": {"conditions": "value without superscript b; ref ClogP database; cited from earlier work"}, "n-hexadecane/1-octanol": {"experiment": "n-hexadecane/1-octanol", "conditions": "for logP C16/O: calculated as logPC16/W-logPO/W"}, "[2]": {"conditions": "value without superscript a: measured and listed in Table S1; cited from earlier work"}, "[3]": {"conditions": "25 °C, shaking at 25 rpm, fit of eqs 1 and 2"}}, "note": "Where two headings read alike, the source gives them in different places.", "data": [{"molecule": "CCOC(=O)c1ccc(N)cc1", "note": "[benzocaine, reference compound]", "values": [{"measurement": "P (n-hexadecane/water partition coefficient)", "setting": "n-hexadecane/water; 25 °C", "result": "1.560±0.666"}, {"measurement": "l1 (rate parameter of transport from water to C16)", "setting": "n-hexadecane/water; [3]", "result": "(1.163±0.488)×10^−1 cm/h"}, {"measurement": "l2 (rate parameter of transport from C16 to water)", "setting": "n-hexadecane/water; [3]", "result": "(7.455±0.577)×10^−2 cm/h"}]}, {"molecule": "CCCCCc1cc(OC)c2c(c1)OC(C)(C)C1CC=C(C)CC21", "note": "(centres unmarked) [methoxy-Δ8-tetrahydrocannabinol]", "values": [{"measurement": "logP O/W", "setting": "[1]", "result": 8.060}, {"measurement": "logP C16/O", "setting": "n-hexadecane/1-octanol", "result": 0.027}]}, {"molecule": "CCOC(=O)c1cccnc1", "note": "[ethylnicotinate]", "values": [{"measurement": "P (n-hexadecane/water partition coefficient)", "setting": "n-hexadecane/water; 25 °C", "result": "3.583±0.983"}, {"measurement": "l1 (rate parameter of transport from water to C16)", "setting": "n-hexadecane/water; [3]", "result": "(5.074±1.031)×10^−1 cm/h"}, {"measurement": "l2 (rate parameter of transport from C16 to water)", "setting": "n-hexadecane/water; [3]", "result": "(1.416±0.261)×10^−1 cm/h"}]}, {"molecule": "O=C(O)CCc1ccc(C=CC=CC=Cc2ccccc2)cc1", "note": "[4-(6-phenyl-1,3,5-hexatrien-1-yl)-benzenepropanoic acid]", "values": [{"measurement": "logP C16/O", "setting": "n-hexadecane/1-octanol", "result": "−2.702"}]}, {"molecule": "CCCCCO", "note": "[1-pentanol]", "values": [{"measurement": "logP C16/O", "setting": "n-hexadecane/1-octanol", "result": "−1.745"}]}, {"molecule": "CCc1ccccc1", "note": "[ethylbenzene]", "values": [{"measurement": "logP C16/O", "setting": "n-hexadecane/1-octanol", "result": 0.050}]}, {"molecule": "CCCCCCCO", "note": "[1-heptanol]", "values": [{"measurement": "logP C16/O", "setting": "n-hexadecane/1-octanol", "result": "−1.655"}]}, {"molecule": "c1ccc2c(c1)[nH]c1ccccc12", "note": "[9H-carbazole]", "values": [{"measurement": "logP C16/O", "setting": "n-hexadecane/1-octanol", "result": "−0.851"}]}, {"molecule": "FC(F)(F)C(Cl)Br", "note": "(centres unmarked) [halothane, reference compound]", "values": [{"measurement": "logP C16/W", "setting": "[2]", "result": 2.100}, {"measurement": "logP C16/O", "setting": "n-hexadecane/1-octanol", "result": "−0.200"}]}, {"molecule": "FC(F)OC(Cl)C(F)(F)F", "note": "(centres unmarked) [isofluorane, reference compound]", "values": [{"measurement": "logP C16/O", "setting": "n-hexadecane/1-octanol", "result": "−0.410"}]}, {"molecule": "O=C(c1ccccc1)c1ccc(Cl)cc1", "note": "[4-chlorobenzophenone]", "values": [{"measurement": "P (n-hexadecane/water partition coefficient)", "setting": "n-hexadecane/water; 25 °C", "result": "(7.315±2.674)×10^2"}, {"measurement": "l1 (rate parameter of transport from water to C16)", "setting": "n-hexadecane/water; [3]", "result": "(1.102±0.216)×10^2 cm/h"}, {"measurement": "l2 (rate parameter of transport from C16 to water)", "setting": "n-hexadecane/water; [3]", "result": "(1.507±0.465)×10^−1 cm/h"}]}, {"molecule": "FC1(F)CCC1(F)Cl", "note": "(centres unmarked) [1-chloro-1,2,2-trifluorocyclobutane]", "values": [{"measurement": "logP C16/O", "setting": "n-hexadecane/1-octanol", "result": 1.436}]}, {"molecule": "OCc1c2ccccc2cc2ccccc12", "note": "[9-anthracenemethanol]", "values": [{"measurement": "P (n-hexadecane/water partition coefficient)", "setting": "n-hexadecane/water; 25 °C", "result": "(2.211±0.554)×10^2"}, {"measurement": "l1 (rate parameter of transport from water to C16)", "setting": "n-hexadecane/water; [3]", "result": "1.565 ± 0.236", "unit": "cm/h"}, {"measurement": "l2 (rate parameter of transport from C16 to water)", "setting": "n-hexadecane/water; [3]", "result": "(7.080±1.416)×10^−3 cm/h"}, {"measurement": "logP O/W", "setting": "[1]", "result": 3.040}, {"measurement": "logP C16/O", "setting": "n-hexadecane/1-octanol", "result": "−0.700"}]}, {"molecule": "O=C(O)CCCCCCCCCCn1c2ccccc2c2ccccc21", "note": "[11-(9-carbazole)-undecanoic acid]", "values": [{"measurement": "logP C16/O", "setting": "n-hexadecane/1-octanol", "result": "−1.418"}]}, {"molecule": "Cn1ccc2ccccc21", "note": "[N-methylindole]", "values": [{"measurement": "logP C16/O", "setting": "n-hexadecane/1-octanol", "result": 0.969}]}, {"molecule": "Cc1ccc(Cl)cc1[N+](=O)[O-]", "note": "[4-chloro-2-nitrotoluene]", "values": [{"measurement": "P (n-hexadecane/water partition coefficient)", "setting": "n-hexadecane/water; 25 °C", "result": "(8.660±3.938)×10^2"}, {"measurement": "l1 (rate parameter of transport from water to C16)", "setting": "n-hexadecane/water; [3]", "result": "(2.168±0.605)×10^2 cm/h"}, {"measurement": "l2 (rate parameter of transport from C16 to water)", "setting": "n-hexadecane/water; [3]", "result": "(2.504±0.899)×10^−1 cm/h"}]}, {"molecule": "O=[N+]([O-])c1ccccc1", "note": "[nitrobenzene]", "values": [{"measurement": "l1 (rate parameter of transport from water to C16)", "setting": "n-hexadecane/water", "result": "1.162 ± 0.218", "unit": "cm/h"}, {"measurement": "l2 (rate parameter of transport from C16 to water)", "setting": "n-hexadecane/water", "result": "(3.950±0.694)×10^−2 cm/h"}]}, {"molecule": "O=C(O)CCCc1c[nH]c2ccccc12", "note": "[1H-indole-3-butanoic acid]", "values": [{"measurement": "logP C16/O", "setting": "n-hexadecane/1-octanol", "result": "−3.531"}]}, {"molecule": "Nc1ccc([N+](=O)[O-])cc1", "note": "[4-nitroaniline]", "values": [{"measurement": "P (n-hexadecane/water partition coefficient)", "setting": "n-hexadecane/water; 25 °C", "result": "(1.890±0.656)×10^−1"}, {"measurement": "l1 (rate parameter of transport from water to C16)", "setting": "n-hexadecane/water; [3]", "result": "(1.192±0.406)×10^−1 cm/h"}, {"measurement": "l2 (rate parameter of transport from C16 to water)", "setting": "n-hexadecane/water; [3]", "result": "(6.295±0.407)×10^−1 cm/h"}]}, {"molecule": "Nc1ccccc1", "note": "[aniline]", "values": [{"measurement": "P (n-hexadecane/water partition coefficient)", "setting": "n-hexadecane/water; 25 °C", "result": "(7.860±1.639)×10^−1"}, {"measurement": "l1 (rate parameter of transport from water to C16)", "setting": "n-hexadecane/water; [3]", "result": "(1.502±0.286)×10^−1 cm/h"}, {"measurement": "l2 (rate parameter of transport from C16 to water)", "setting": "n-hexadecane/water; [3]", "result": "(1.912±0.162)×10^−1 cm/h"}]}, {"molecule": "c1ccc2[nH]ccc2c1", "note": "[indole]", "values": [{"measurement": "P (n-hexadecane/water partition coefficient)", "setting": "n-hexadecane/water; 25 °C", "result": "5.660±0.633"}, {"measurement": "l1 (rate parameter of transport from water to C16)", "setting": "n-hexadecane/water; [3]", "result": "(6.291±0.522)×10^−1 cm/h"}, {"measurement": "l2 (rate parameter of transport from C16 to water)", "setting": "n-hexadecane/water; [3]", "result": "(1.111±0.083)×10^−1 cm/h"}, {"measurement": "logP C16/O", "setting": "n-hexadecane/1-octanol", "result": "−0.920"}]}, {"molecule": "C1=Cc2ccccc2C1", "note": "[1H-indene]", "values": [{"measurement": "logP O/W", "setting": "[1]", "result": 2.920}, {"measurement": "logP C16/O", "setting": "n-hexadecane/1-octanol", "result": "−0.078"}]}, {"molecule": "Cc1ccc(C=CC=CC=Cc2ccccc2)cc1", "note": "[1-methyl-4-(6-phenyl-1,3,5-hexatrien-1-yl)-benzene]", "values": [{"measurement": "logP C16/O", "setting": "n-hexadecane/1-octanol", "result": 0.193}]}, {"molecule": "Oc1ccccc1-c1ccccc1", "note": "[2-phenylphenol]", "values": [{"measurement": "P (n-hexadecane/water partition coefficient)", "setting": "n-hexadecane/water; 25 °C", "result": "(3.536±1.329)×10^1"}, {"measurement": "l1 (rate parameter of transport from water to C16)", "setting": "n-hexadecane/water; [3]", "result": "(3.699±0.935)×10^−1 cm/h"}, {"measurement": "l2 (rate parameter of transport from C16 to water)", "setting": "n-hexadecane/water; [3]", "result": "(1.046±0.291)×10^−2 cm/h"}]}, {"molecule": "CNC(=O)c1ccccc1", "note": "[N-methylbenzamide]", "values": [{"measurement": "P (n-hexadecane/water partition coefficient)", "setting": "n-hexadecane/water; 25 °C", "result": "(6.450±1.180)×10^−1"}, {"measurement": "l1 (rate parameter of transport from water to C16)", "setting": "n-hexadecane/water; [3]", "result": "(4.982±0.860)×10^−1 cm/h"}, {"measurement": "l2 (rate parameter of transport from C16 to water)", "setting": "n-hexadecane/water; [3]", "result": "(7.724±0.467)×10^−1 cm/h"}]}, {"molecule": "O=C=O", "note": "[carbon dioxide]", "values": [{"measurement": "affinity for n-hexadecane versus 1-octanol (logPC16/W vs logPO/W, Figure 1)", "setting": "n-hexadecane/1-octanol; small molecules plotted as crosses in Figure 1", "result": "not observed"}]}]}
